Where “and” joins values, the source holds several entries; their conditions need not be identical. Identical values can stand only once. Toxic doses and inconclusive results are not listed.
Test system: L1210 leukemia ip in BDF1 mice, survival T/C
Assay: NCI In Vivo Anticancer Drug Screen. Data for tumor model L1210 Leukemia (intraperitoneal) in B6D2F1 (BDF1) mice
Conditions: endpoint: mean survival time, higher = longer survival
Summary of the method: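 Value reflects the ratio of survival in compound-treated mice to survival in vehicle-treated controls, with both groups carrying the same transplanted tumor.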

[1] = dose: 100.0 mg/kg/injection, schedule: Q01DX009 (ip), vehicle: Klucel (hydroxypropylcellulose) (HPC)
[2] = dose: 100.0 mg/kg/injection, schedule: Q04DX003 (ip), vehicle: Klucel (hydroxypropylcellulose) (HPC)
[3] = dose: 200.0 mg/kg/injection, schedule: Q01DX009 (ip), vehicle: Klucel (hydroxypropylcellulose) (HPC)
[4] = dose: 200.0 mg/kg/injection, schedule: Q04DX003 (ip), vehicle: Klucel (hydroxypropylcellulose) (HPC)
[5] = dose: 400.0 mg/kg/injection, schedule: Q04DX003 (ip), vehicle: Klucel (hydroxypropylcellulose) (HPC)
[6] = dose: 50.0 mg/kg/injection, schedule: Q01DX009 (ip), vehicle: saline with Tween-80
[7] = dose: 100.0 mg/kg/injection, schedule: Q01DX009 (ip), vehicle: saline with Tween-80
[8] = dose: 100.0 mg/kg/injection, schedule: Q04DX003 (ip), vehicle: saline with Tween-80
[9] = dose: 200.0 mg/kg/injection, schedule: Q01DX009 (ip), vehicle: saline with Tween-80
[10] = dose: 200.0 mg/kg/injection, schedule: Q04DX003 (ip), vehicle: saline with Tween-80
[11] = dose: 400.0 mg/kg/injection, schedule: Q04DX003 (ip), vehicle: saline with Tween-80
[12] = dose: 100.0 mg/kg/injection, schedule: Q01DX001 (ip), vehicle: saline
[13] = dose: 200.0 mg/kg/injection, schedule: Q01DX001 (ip), vehicle: saline
[14] = dose: 400.0 mg/kg/injection, schedule: Q01DX001 (ip), vehicle: saline
[15] = dose: 12.5 mg/kg/injection, schedule: Q01DX009 (ip), vehicle: saline with Tween-80
[16] = dose: 12.5 mg/kg/injection, schedule: Q04DX003 (ip), vehicle: saline with Tween-80
[17] = dose: 25.0 mg/kg/injection, schedule: Q01DX009 (ip), vehicle: saline with Tween-80
[18] = dose: 25.0 mg/kg/injection, schedule: Q04DX003 (ip), vehicle: saline with Tween-80
[19] = dose: 50.0 mg/kg/injection, schedule: Q04DX003 (ip), vehicle: saline with Tween-80
[20] = dose: 100.0 mg/kg/injection, schedule: Q04DX002 (ip), vehicle: Klucel (hydroxypropylcellulose) (HPC)
[21] = dose: 200.0 mg/kg/injection, schedule: Q04DX002 (ip), vehicle: Klucel (hydroxypropylcellulose) (HPC)
[22] = dose: 400.0 mg/kg/injection, schedule: Q04DX002 (ip), vehicle: Klucel (hydroxypropylcellulose) (HPC)

Cc1c(C)c(NC(=O)N(CCCl)N=O)c(C)c(C)c1NC(=O)N(CCCl)N=O
T/C (dose: 15.5 mg/kg/injection, schedule: Q01DX001 (ip), vehicle: other): 120 % of control
T/C (dose: 62.0 mg/kg/injection, schedule: Q01DX001 (ip), vehicle: other): 152 % of control
T/C (dose: 125.0 mg/kg/injection, schedule: Q01DX001 (ip), vehicle: other): 159 % of control and 160 % of control and 207 % of control
T/C (dose: 250.0 mg/kg/injection, schedule: Q01DX001 (ip), vehicle: other): 203 % of control and 211 % of control and 252 % of control
T/C (dose: 375.0 mg/kg/injection, schedule: Q01DX001 (ip), vehicle: other): 237 % of control
T/C (dose: 500.0 mg/kg/injection, schedule: Q01DX001 (ip), vehicle: other): 223 % of control and 283 % of control
T/C (dose: 501.0 mg/kg/injection, schedule: Q01DX001 (ip), vehicle: other): 115 % of control
T/C (dose: 750.0 mg/kg/injection, schedule: Q01DX001 (ip), vehicle: other): 151 % of control and 238 % of control
T/C (dose: 1000.0 mg/kg/injection, schedule: Q01DX001 (ip), vehicle: other): 190 % of control

COc1ccc(OCC2CO2)cc1 (stereo not given)
T/C [1]: 103 % of control
T/C [2]: 100 % of control
T/C [3]: 103 % of control
T/C [4]: 96 % of control
T/C (dose: 400.0 mg/kg/injection, schedule: Q01DX009 (ip), vehicle: Klucel (hydroxypropylcellulose) (HPC)): 102 % of control
T/C [5]: 102 % of control

O=C(Nc1cccc2c(NC(=O)c3ccccc3)cccc12)c1ccccc1
T/C (dose: 100.0 mg/kg/injection, schedule: Q01DX001 (ip), vehicle: saline with Tween-80): 92 % of control
T/C (dose: 200.0 mg/kg/injection, schedule: Q01DX001 (ip), vehicle: saline with Tween-80): 91 % of control
T/C (dose: 400.0 mg/kg/injection, schedule: Q01DX001 (ip), vehicle: saline with Tween-80): 89 % of control

NNC(=O)c1ccc[nH]1
T/C (dose: 75.0 mg/kg/injection, schedule: Q01DX001 (ip), vehicle: saline): 102 % of control

COc1cc(/C=N/O)ccc1O
T/C [6]: 97 % of control and 105 % of control
T/C [7]: 97 % of control and 102 % of control
T/C [8]: 96 % of control
T/C [9]: 107 % of control and 112 % of control
T/C [10]: 87 % of control
T/C [11]: 91 % of control

C(=N/N(Cc1ccccc1)Cc1ccccc1)/c1ccccc1
T/C [12]: 94 % of control
T/C [13]: 103 % of control
T/C [14]: 101 % of control

CN(C)CCC1(c2ccccc2)C=Cc2ccccc21 (stereo not given)
T/C (dose: 3.12 mg/kg/injection, schedule: Q01DX009 (ip), vehicle: saline): 93 % of control
T/C (dose: 6.25 mg/kg/injection, schedule: Q01DX009 (ip), vehicle: saline): 97 % of control
T/C (dose: 12.5 mg/kg/injection, schedule: Q01DX009 (ip), vehicle: saline): 101 % of control
T/C (dose: 25.0 mg/kg/injection, schedule: Q01DX009 (ip), vehicle: saline): 100 % of control
T/C (dose: 50.0 mg/kg/injection, schedule: Q01DX009 (ip), vehicle: saline): 95 % of control

C=C(Cl)CSC1=NCCS1
T/C (dose: 100.0 mg/kg/injection, schedule: Q04DX002 (sc), vehicle: olive oil, sesame oil, peanut oil): 90 % of control
T/C (dose: 200.0 mg/kg/injection, schedule: Q04DX002 (sc), vehicle: olive oil, sesame oil, peanut oil): 100 % of control
T/C (dose: 400.0 mg/kg/injection, schedule: Q04DX002 (sc), vehicle: olive oil, sesame oil, peanut oil): 100 % of control

CCCc1ccc(OCC(=O)O)c(OC)c1
T/C (dose: 75.0 mg/kg/injection, schedule: Q01DX001 (ip), vehicle: acetone): 93 % of control
T/C (dose: 150.0 mg/kg/injection, schedule: Q01DX001 (ip), vehicle: acetone): 92 % of control
T/C (dose: 300.0 mg/kg/injection, schedule: Q01DX001 (ip), vehicle: acetone): 88 % of control

O=C1CCCC(=O)c2c(O)ccc(O)c21
T/C [12]: 96 % of control
T/C [13]: 98 % of control
T/C [14]: 96 % of control

O=S(=O)(NO)c1cccc(S(=O)(=O)NO)c1
T/C (dose: 100.0 mg/kg/injection, schedule: Q01DX009 (ip), vehicle: saline): 97 % of control
T/C [2]: 89 % of control
T/C (dose: 200.0 mg/kg/injection, schedule: Q01DX009 (ip), vehicle: saline): 87 % of control
T/C [4]: 95 % of control
T/C [5]: 92 % of control

C/C(=N\N=C(/C)c1ccc([N+](=O)[O-])cc1)c1ccc([N+](=O)[O-])cc1
T/C (dose: 100.0 mg/kg/injection, schedule: Q04DX002 (ip), vehicle: saline with Tween-80): 98 % of control
T/C (dose: 200.0 mg/kg/injection, schedule: Q04DX002 (ip), vehicle: saline with Tween-80): 103 % of control
T/C (dose: 400.0 mg/kg/injection, schedule: Q04DX002 (ip), vehicle: saline with Tween-80): 103 % of control

Cc1nccnc1SC1CCCCC1
T/C [2]: 96 % of control
T/C [4]: 96 % of control
T/C [5]: 93 % of control

N#C/C(=C\c1ccc(-c2ccccc2)cc1)c1ccccc1
T/C [15]: 87 % of control
T/C [16]: 109 % of control
T/C [17]: 87 % of control
T/C [18]: 91 % of control
T/C [6]: 86 % of control
T/C [19]: 88 % of control

CNC(C)(C)C(SSSC(c1ccc(Cl)cc1)C(C)(C)NC)c1ccc(Cl)cc1 (stereo not given)
T/C [15]: 103 % of control
T/C [16]: 98 % of control
T/C [17]: 98 % of control
T/C [18]: 100 % of control
T/C [6]: 97 % of control
T/C [19]: 96 % of control

CC(C)(C)NC(=O)NCC1CCCC1NC(=O)NC(C)(C)C (stereo not given)
T/C [20]: 92 % of control
T/C [21]: 99 % of control
T/C [22]: 92 % of control

CC(C)(C)CC(C)(C)N
T/C (dose: 12.5 mg/kg/injection, schedule: Q01DX001 (ip), vehicle: Klucel (hydroxypropylcellulose) (HPC)): 100 % of control
T/C (dose: 25.0 mg/kg/injection, schedule: Q01DX001 (ip), vehicle: Klucel (hydroxypropylcellulose) (HPC)): 92 % of control
T/C (dose: 50.0 mg/kg/injection, schedule: Q01DX001 (ip), vehicle: Klucel (hydroxypropylcellulose) (HPC)): 92 % of control

O=C(COc1ccc(Cl)cc1C(=O)O)NCc1ccc([N+](=O)[O-])cc1
T/C (dose: 75.0 mg/kg/injection, schedule: Q01DX009 (ip), vehicle: Klucel (hydroxypropylcellulose) (HPC)): 106 % of control
T/C (dose: 150.0 mg/kg/injection, schedule: Q01DX009 (ip), vehicle: Klucel (hydroxypropylcellulose) (HPC)): 104 % of control
T/C (dose: 300.0 mg/kg/injection, schedule: Q01DX009 (ip), vehicle: Klucel (hydroxypropylcellulose) (HPC)): 101 % of control

Cc1ccc(C(C)C)c(OC(=O)Nc2ccc(S(=O)(=O)NC3CCCCC3)cc2)c1
T/C [12]: 94 % of control
T/C [13]: 96 % of control
T/C [14]: 94 % of control

CN1C(=S)SC(c2ccccc2)N(C)C1c1ccccc1 (stereo not given)
T/C (dose: 50.0 mg/kg/injection, schedule: Q01DX009 (ip), vehicle: Klucel (hydroxypropylcellulose) (HPC)): 101 % of control
T/C [1]: 98 % of control
T/C [2]: 89 % of control
T/C [3]: 106 % of control
T/C [4]: 89 % of control
T/C [5]: 86 % of control

CCOc1ccc(NC(=O)COc2ccc(Cl)cc2Cl)cc1
T/C [20]: 89 % of control
T/C [21]: 101 % of control
T/C [22]: 92 % of control

COC(=O)c1cc(Cl)cc(C(=O)OC)c1
T/C [8]: 96 % of control
T/C [10]: 93 % of control
T/C [11]: 93 % of control

CC(C)N(C(=O)Nc1ccc(Cl)cc1)C1CCCCC1
T/C (dose: 87.5 mg/kg/injection, schedule: Q04DX003 (ip), vehicle: carboxymethylcellulose (CMC)): 101 % of control
T/C (dose: 175.0 mg/kg/injection, schedule: Q04DX003 (ip), vehicle: carboxymethylcellulose (CMC)): 96 % of control
T/C (dose: 350.0 mg/kg/injection, schedule: Q04DX003 (ip), vehicle: carboxymethylcellulose (CMC)): 95 % of control

O=[N+]([O-])c1cccc(OCCCc2ccccc2)c1
T/C [7]: 98 % of control
T/C [9]: 102 % of control
T/C (dose: 400.0 mg/kg/injection, schedule: Q01DX009 (ip), vehicle: saline with Tween-80): 112 % of control

From PubChem BioAssay AID248 (DTP/NCI, 2004)
